In ChEMBL document CHEMBL2074090, “Characterization of the transport properties of cloned rat multidrug resistance-associated protein 3 (MRP3)” (J Biol Chem, 1999):

Assays:
[1] = molecular target: T1, MRP3 (ABCC3, ATP-binding cassette sub-family C member 3) (Rattus norvegicus, UniProt O88563); experiment: TP_TRANSPORTER: inhibition of E217betaG uptake (E217betaG: 0.1 uM, alpha-naphthyl beta-D-glucuronide: 200 uM) in membrane vesicle from Mrp3-expressing LLC-PK1 cells; format: functional, cell membranes; set-up: scale not given: the % may be the effect or the level left; details: pig, membrane vesicles from Mrp3-expressing LLC-PK1 cells, probe E217betaG; read-out: Activity
[2] = molecular target: T1, MRP3 (ABCC3, ATP-binding cassette sub-family C member 3); experiment: TP_TRANSPORTER: inhibition of E217betaG uptake (E217betaG: 0.1 uM, DNP-SG: 500 uM) in membrane vesicles from MRP3-expressing LLC-PK1 cells; format: functional, cell membranes, Membrane vesicle; set-up: scale not given: the % may be the effect or the level left; details: pig, probe E217betaG, read-out: Activity
[3] = molecular target: T1, MRP3 (ABCC3, ATP-binding cassette sub-family C member 3); experiment: TP_TRANSPORTER: inhibition of E217betaG uptake (E217betaG: 0.1 uM, 4-methylumbeliferone glucuronide: 500 uM) in membrane vesicle from Mrp3-expressing LLC-PK1 cells; format: functional, cell membranes; set-up: scale not given: the % may be the effect or the level left; details: pig, membrane vesicles from Mrp3-expressing LLC-PK1 cells, probe E217betaG; read-out: Activity
[4] = molecular target: ATP-binding cassette sub-family C member 3 (Rattus norvegicus, UniProt O88563); experiment: (§1) TP_TRANSPORTER: uptake in membrane vesicle from Mrp3-expressing LLC-PK1 cells; format: functional, cell membranes; details: pig
[5] = molecular target: T1, MRP3 (ABCC3, ATP-binding cassette sub-family C member 3); experiment: TP_TRANSPORTER: inhibition of E217betaG uptake (E217betaG: 0.1 uM, E3040 glucuronide: 50 uM) in membrane vesicles from MRP3-expressing HeLa cells; format: functional, cell membranes, Membrane vesicle; set-up: scale not given: the % may be the effect or the level left; details: human, probe E217betaG, read-out: Activity
[6] = molecular target: T1, MRP3 (ABCC3, ATP-binding cassette sub-family C member 3); experiment: TP_TRANSPORTER: inhibition of E217betaG uptake (E217betaG: 0.1 uM, E1S: 500 uM) in membrane vesicle from Mrp3-expressing LLC-PK1 cells; format: functional, cell membranes; set-up: scale not given: the % may be the effect or the level left; details: pig, membrane vesicles from Mrp3-expressing LLC-PK1 cells, probe E217betaG; read-out: Activity
[7] = molecular target: T1, MRP3 (ABCC3, ATP-binding cassette sub-family C member 3); experiment: TP_TRANSPORTER: inhibition of E217betaG uptake (E217betaG: 0.1 uM, LTC4: 2.5 uM) in membrane vesicle from Mrp3-expressing LLC-PK1 cells; format: functional, cell membranes; set-up: scale not given: the % may be the effect or the level left; details: pig, membrane vesicles from Mrp3-expressing LLC-PK1 cells, probe E217betaG; read-out: Activity
[8] = molecular target: T1, MRP3 (ABCC3, ATP-binding cassette sub-family C member 3); experiment: TP_TRANSPORTER: inhibition of E217betaG uptake (E217betaG: 0.1 uM, MTX: 1000 uM) in membrane vesicles from MRP3-expressing HeLa cells; format: functional, cell membranes, Membrane vesicle; set-up: scale not given: the % may be the effect or the level left; details: human, probe E217betaG, read-out: Activity
[9] = molecular target: T1, MRP3 (ABCC3, ATP-binding cassette sub-family C member 3); experiment: TP_TRANSPORTER: inhibition of E217betaG uptake (E217betaG: 0.1 uM, MTX: 1000 uM) in membrane vesicles from MRP3-expressing LLC-PK1 cells; format: functional, cell membranes, Membrane vesicle; set-up: scale not given: the % may be the effect or the level left; details: pig, probe E217betaG, read-out: Activity
[10] = substrate: C[C@]12CC[C@@H]3c4ccc(O)cc4CC[C@H]3[C@@H]1CC[C@@H]2O[C@@H]1O[C@H](C(=O)O)[C@@H](O)[C@H](O)[C@H]1O; experiment: as §1; format: functional, cell membranes

For O=C(O)[C@H]1O[C@@H](Oc2cccc3ccccc23)[C@H](O)[C@@H](O)[C@@H]1O, the activity at 200 µM [1] was 23.6%.

With N[C@@H](CCC(=O)N[C@H](CSc1ccc([N+](=O)[O-])cc1[N+](=O)[O-])C(=O)NCC(=O)O)C(=O)O the activity at 500 µM [2] was 14.4%.

O=C(O)[C@H]1O[C@@H](OCc2cc(=O)oc3cc(O)ccc23)[C@H](O)[C@@H](O)[C@@H]1O showed an activity at 500 µM [3] of 14.1%.

With CNc1nc2c(Cc3cccnc3)c(C)c(O[C@@H]3O[C@H](C(=O)O)[C@@H](O)[C@H](O)[C@H]3O)c(C)c2s1 [E3040 GLUCURONIDE] the Activity [4] was “substrate [+]” and the activity at 50 µM [5] was 11.1%.

In the case of C[C@]12CC[C@@H]3c4ccc(OS(=O)(=O)O)cc4CC[C@H]3[C@@H]1CCC2=O [ESTRONE SULFURIC ACID], the activity at 500 µM [6] is reported as 33.3%.

CCCCC/C=C\C\C=C/C=C/C=C/[C@@H](SC[C@@H](NC(=O)CC[C@H](N)C(=O)O)C(=O)NCC(=O)O)[C@@H](O)CCCC(=O)O [LEUKOTRIEN C4] was tested, and the activity at 2.5 µM [7] was 57%.

CN(Cc1cnc2nc(N)nc(N)c2n1)c1ccc(C(=O)N[C@@H](CCC(=O)O)C(=O)O)cc1 [METHOTREXATE] was tested, and the Activity [4] was “substrate [+]”, the activity at 1000 µM [8] was 18.5% and the activity at 1000 µM [9] was 10.7%.

B1: ATP-binding cassette sub-family C member 3 (Rattus norvegicus) (protein)
chain: MDRLCGSGELGSKFWDSNLTVYTNTPDLTPCFQNSLLAWVPCIYLWAALPCYLFYLRHHRLGYIVLSCLSRLKTALGVLLWCISWVDLFYSFHGLVHGSSPAPVFFITPLLVGITMLLATLLIQYERLRGVRSSGVLIIFWLLCVICAIIPFRSKILLALAEGKILDPFRFTTFYIYFALVLCAFILSCFQEKPPLFSPENLDTNPCPEASAGFFSRLSFWWFTKLAILGYRRPLEDSDLWSLSEEDCSHKVVQRLLEAWQKQQTQASGPQTAALEPKIAGEDEVLLKARPKTKKPSFLRALVRTFTSSLLMGACFKLIQDLSPSSTHSCSASSSGLFRPHGPYWWGFLLAGLMFVSSTMQTLILHQHYHCIFVMALRIRTAIIGVIYRKALTITNSVKREYTVGEMVNLMSVDAQRFMDVSPFINLLWSAPLQVILAIYFLWQILGPSALAGVAVIVLLIPLNGAVSMKMKTYQVQQMKFKDSRIKLMSEILNGIKVLKLYAWEPTFLEQVEGIRQGELQLLRKGAYLQAISTFIWVCTPFMVTLITLGVYVCVDKNNVLDAEKAFVSLSLFNILKIPLNLLPQLISGMTQTSVSLKRIQDFLNQDELDPQCVERKTISPGRAITIHNGTFSWSKDLPPTLHSINIQIPKGALVAVVGPVGCGKSSLVSALLGEMEKLEGAVSVKGSVAYVPQQAWIQNCTLQENVLFGQPMNPKRYQQALETCALLADLDVLPGGDQTEIGEKGINLSGGQRQRVSLARAVYSDANIFLLDDPLSAVDSHVAKHIFDQVIGPEGVLAGKTRVLVTHGISFLPQTDFIIVLADGQITEMGHYSELLQHDGSFANFLRNYAPDENQEANEGVLQHANEEVLLLEDTLSTHTDLTDTEPAIYEVRKQFMREMSSLSSEGEGQNRPVLKRYTSSLEKEVPATQTKETGALIKEEIAETGNVKLSVYWDYAKSVGLCTTLFICLLYAGQNAVAIGANVWLSAWTNDVEEHGQQNNTSVRLGVYATLGILQGLLVMLSAFTMVVGAIQAARLLHTALLHNQIRAPQSFFDTTPSGRILNRFSKDIYVIHEVLAPTILMLFNSFYTSISTIVVIVASTPLFCVVVLPLAVFYGFVQRFYVATSRQLKRLESVSRSPIFSHFSETVTGTSVIRAYGRVQDFKVLSDAKVDSNQKTTYPYIASNRWLGVHVEFVGNCVVLFSALFAVIGRNSLNPGLVGLSVSYALQVTLSLNWMIRTLSDLESNIIAVERVKEYSKTETEAPWVLESNRAPEGWPRSGVVEFRNYSVRYRPGLELVLKNLTLHVQGGEKVGIVGRTGAGKSSMTLCLFRILEAAEGEIFIDGLNVAHIGLHDLRSQLTIIPQDPILFSGTLRMNLDPFGRYSDEDIWRTLELSHLSAFVSSQPTGLDFQCSEGGDNLSVGQRQLVCLARALLRKSRVLVLDEATAAIDLETDDLIQGTIRTQFEDCTVLTIAHRLNTIMDYNRVLVLDKGVVAEFDSPVNLIAAGGIFYGMAKDAGLA
B1 was tested, and the Km [10] was 110 µM.
